One assay deals with MDA-MB-231 cells. The experiment in a line: Live cell imaging with fluorescent probe 12. Format: cell-based, human. The following applies: 30 min preincubation, 100-fold excess competitor. The protocol:
MDA-MB-231 cells were seeded on fibronectin-coated coverslips at 70% confluency in a 48-well plate and cultured at 37 °C and 5% CO2. After 24 h, culture medium was replaced with fresh medium containing a 20 µM competitor or an equal volume of DMSO vehicle for 30 min at 37 °C and 5% CO2, followed by addition of 0.2 µM (final concentration) fluorescent probe 12. After 1 h incubation at 37 °C and 5% CO2, the coverslips were mounted onto a glass slide with a mounting medium with or without 0.5 µg/ml DAPI.
The fluorescent images were acquired with a confocal microscope (Leica TCS SP5) using 405 nm excitation and 562 nm excitation. For the ER co-localization studies, 1 uM ER-Tracker™ Blue-White DPX was added to the medium after 1 h incubation with probe 12. After 5 min incubation, the coverslips were mounted onto a glass slide and the images were acquired as described above.
CT7 photo-affinity labeling and click chemistry were done as previously described.14 Briefly, SRMs (sheep rough microsomes, isolated as described in reference15) containing 100 nM Sec61 were treated with 10 µM ipomoeassin F/mycolactone or 1% DMSO for 30 min at 0°C, followed by incubation with 100 nM CT7 for 10 min RT. Samples were then photolyzed for 10 min and crosslinked proteins were detected by click chemistry, SDS-PAGE, and in-gel fluorescent scanning (Typhoon Trio, GE Healthcare). […]

Assay [1] has as its system MDA-MB-231, MCF7, MCF-10A. Kind of assay: Cytotoxicity relative to ipomoeassin F across the cell lines of Table 1. The following applies: depending on the cell type (Table 1). Format: cell-based, human. The protocol: Two human breast cancer cell lines (MDA-MB-231 and MCF7) and one human breast non-tumorigenic epithelial cell line (MCF-10A) were maintained in a DMEM high glucose culture medium supplemented with 10% fetal bovine serum (FBS) and 2 mM L-glutamine. The cells were grown in a humidified atmosphere of 5% CO2 and 95% air at 37 °C . The culture medi um w as changed every 2–4 days depending on cell density. Cell cultures were passaged once a week using 0.125% trypsin-EDTA to detach the cells from culture flasks/dishes.
The human colorectal cancer cell line HCT116 was maintained in McCoy’s 5A (modified) medium supplemented with 10% fetal bovine serum (FBS). […]
Viable cells were counted with a hemocytometer immediately before each experiment. […] Absorbance of formazan was detected by a microplate reader (BioTek Synergy H1) at 570 nm with 650 nm as the reference wavelength. The percentage of viability compared to the negative control (DMSO-treated cells) was determined . […]
MDA-MB-231, MCF-10A and HCT116. Viable cells were counted with a hemocytometer immediately before each experiment . […] Emission of each well at 620 nm was detected by a microplate reader (BioTek Synergy H1) at excitation 580 nm. […] Cells were treated for 96 h, then viability measured with AlamarBlue, detected using the conditions described but with a BMG Fluostar Optima Microplate Reader. […]

2 molecules from PMC6627486, “Ipomoeassin F Binds Sec61α to Inhibit Protein Translocation” (Journal of the American Chemical Society, 2019) can be followed below.

On to `C/C=C(\C)C(=O)O[C@@H]1[C@@H](O)[C@@H]2O[C@H]3[C@H](O[C@@H](CCCCC)CCCCCCC(=O)CCC(=O)OC[C@@H](O2)[C@H]1OC(=O)/C=C/c1ccccc1)O[C@H](C)[C@H](OC(C)=O)[C@@H]3O` [ipomoeassin F], for which, in the assay with MDA-MB-231 cells, the “effect of competitor on fluorescence signal of 12” value is “almost completely abolished”. Consider `C/C=C(\C)C(=O)O[C@H]1[C@H](OC(=O)/C=C/c2ccc(OCc3cn(CCOCCOCCOCCNC(=O)CCCC[C@@H]4SC[C@@H]5NC(=O)N[C@@H]54)nn3)cc2)[C@@H](O)[C@@H]2O[C@H]3[C@H](O[C@@H](CCCCC)CCCCCCC(=O)CCC(=O)OC[C@H]1O2)O[C@H](C)[C@H](OC(C)=O)[C@@H]3O` [compound 5], for which the “decrease in potency versus ipomoeassin F” value in assay [1] is given as approximately 5 fold.
